Laboratory results published in ChEMBL document CHEMBL5137015, “Design, synthesis, and evaluation of a novel series of mono-indolylbenzoquinones derivatives for the potential treatment of breast cancer” (Eur J Med Chem, 2022).
The source made the active and inactive calls. No cut-off for these calls is given here.

Tests used:
MDA-MB-231 [1] = experiment: Antiproliferative activity against human MDA-MB-231 cells assessed as inhibition of cell growth by MTT assay; type: functional, cell-based
HeLa = experiment: Antiproliferative activity against human HeLa cells assessed as inhibition of cell growth by MTT assay; type: functional, cell-based
A549 = experiment: Antiproliferative activity against human A549 cells assessed as inhibition of cell growth by MTT assay; type: functional, cell-based
MDA-MB-231 [2] = experiment: Induction of cell cycle arrest in human MDA-MB-231 cells assessed as decrease in G1 phase cells at 10 uM incubated for 24 hrs by PI staining based flow cytometric analysis (reference value: 74.44%); type: functional; design: scale not given: the % may be the effect or the level left
MDA-MB-231 [3] = experiment: Induction of cell cycle arrest in human MDA-MB-231 cells assessed as increase in G2 phase cells at 10 uM incubated for 24 hrs by PI staining based flow cytometric analysis (reference value: 8.95%); type: functional
MDA-MB-231 [4] = experiment: Induction of apoptosis in human MDA-MB-231 cells assessed as apoptotic cells at 10 uM incubated for 24 hrs by Annexin V-FITC/propidium iodide staining based flow cytometric method (reference value: 5.68%); type: functional
MDA-MB-231 [5] = experiment: Induction of cell cycle arrest in human MDA-MB-231 cells assessed as decrease in S phase cells at 10 uM incubated for 24 hrs by PI staining based flow cytometric analysis (reference value: 16.61%); type: functional; design: scale not given: the % may be the effect or the level left
4T1 [6] = experiment: Antitumor activity against mouse 4T1 cells implanted in Balb/c mouse assessed as tumor growth inhibition by measuring T/C ratio at 50 mg/kg administered intratumorally every four days for 14 days in the presence of liquid cyanoacrylate; type: functional; conditions: route it(Intratumoral), time 14 day
[7] = Toxicity in Balb/c mouse implanted with mouse 4T1 cells assessed as spleen lesions at 50 mg/kg administered intratumorally every four days for 14 days in the presence of liquid cyanoacrylate by H&E staining based histopathological analysis; type: organism-based; conditions: in vivo, other, 336 h, route it(Intratumoral), time 14 day
Mus musculus = experiment: Protection of Balb/c mouse spleen implanted with mouse 4T1 cells at 50 mg/kg administered intratumorally every four days for 14 days in the presence of liquid cyanoacrylate; type: functional, organism-based; conditions: route it(Intratumoral), time 14.0 day
4T1 [8] = experiment: Antitumor activity against mouse 4T1 cells implanted in Balb/c mouse assessed as tumor growth inhibition at 50 mg/kg administered intratumorally every four days for 14 days in the presence of liquid cyanoacrylate relative to control; type: functional; conditions: 4T1, 336 h, route it(Intratumoral), time 14 day, read-out: TGI
[9] = Toxicity in Balb/c mouse implanted with mouse 4T1 cells assessed as heart lesions at 50 mg/kg administered intratumorally every four days for 14 days in the presence of liquid cyanoacrylate by H&E staining based histopathological analysis; type: organism-based; conditions: in vivo, other, 336 h, route it(Intratumoral), time 14 day
[10] = Toxicity in Balb/c mouse implanted with mouse 4T1 cells assessed as kidney lesions at 50 mg/kg administered intratumorally every four days for 14 days in the presence of liquid cyanoacrylate by H&E staining based histopathological analysis; type: organism-based; conditions: in vivo, other, 336 h, route it(Intratumoral), time 14 day
4T1 [11] = experiment: Antitumor activity against mouse 4T1 cells implanted in Balb/c mouse assessed as apoptotic rate of dissected tumor cell at 50 mg/kg administered intratumorally every four days for 14 days in the presence of liquid cyanoacrylate by flow cytometric analysis (reference value: 64.83%); type: functional; conditions: route it(Intratumoral), time 14 day
4T1 [12] = experiment: Antitumor activity against mouse 4T1 cells implanted in Balb/c mouse assessed as TUNEL positive cells at 50 mg/kg administered intratumorally every four days for 14 days in the presence of liquid cyanoacrylate by TUNEL staining analysis; type: functional; conditions: route it(Intratumoral), time 14 day
[13] = Toxicity in Balb/c mouse implanted with mouse 4T1 cells assessed as liver lesions at 50 mg/kg administered intratumorally every four days for 14 days in the presence of liquid cyanoacrylate by H&E staining based histopathological analysis; type: organism-based; conditions: in vivo, other, 336 h, route it(Intratumoral), time 14 day
4T1 [14] = experiment: Antitumor activity against mouse 4T1 cells implanted in Balb/c mouse assessed as nuclei disappearance at 50 mg/kg administered intratumorally every four days for 14 days in the presence of liquid cyanoacrylate; type: functional, organism-based; conditions: route it(Intratumoral), time 14.0 day
[15] = Toxicity in Balb/c mouse implanted with mouse 4T1 cells assessed as lung lesions at 50 mg/kg administered intratumorally every four days for 14 days in the presence of liquid cyanoacrylate by H&E staining based histopathological analysis; type: organism-based; conditions: in vivo, other, 336 h, route it(Intratumoral), time 14 day

| Structure (SMILES) | IC50 (MDA-MB-231 [1]) [nM] | IC50 (HeLa) [nM] | IC50 (A549) [nM] | other results |
| --- | --- | --- | --- | --- |
| COC(=O)/C=C/C(=O)OCCNC1=C(Cl)C(=O)C(c2c(C)[nH]c3ccccc23)=C(Cl)C1=O | 110 | 220 | 150 |  |
| Cn1c(CCCC(=O)O)nc2cc(N(CCCl)CCCl)ccc21 [BENDAMUSTINE] |  | > 20000 |  |  |
| Cc1[nH]c2ccccc2c1C1=C(Cl)C(=O)C(NCCOc2ccccc2)=C(Cl)C1=O | 730 | 5050 | 7090 |  |
| Cc1[nH]c2ccccc2c1C1=C(Cl)C(=O)C(Cl)=C(NCCc2cc3ccccc3[nH]2)C1=O | 620 | > 10000 | > 10000 |  |
| Cc1[nH]c2ccccc2c1C1=C(Cl)C(=O)C(N2CCN(C=O)CC2)=C(Cl)C1=O | 200 | 740 | 370 |  |
| COC(=O)/C=C/C(=O)OCCN1CCN(C2=C(Cl)C(=O)C(Cl)=C(c3c(C)[nH]c4ccccc34)C2=O)CC1 | 260 | 220 | 8380 |  |
| C#CCNC1=C(Cl)C(=O)C(Cl)=C(c2c(C)[nH]c3ccccc23)C1=O | 190 | 190 | 160 |  |
| COc1ccc(CCNC2=C(Cl)C(=O)C(Cl)=C(c3c(C)[nH]c4ccccc34)C2=O)cc1OC | 1490 | 9730 | 8640 |  |
| COc1ccc(/C=C\c2cc(OC)c(OC)c(OC)c2)cc1O [COMBRETASTATIN A4] |  |  |  | Activity (MDA-MB-231 [2]): 8.4%; Activity (MDA-MB-231 [3]): 91.6%; Activity (MDA-MB-231 [4]): 25.55%; Activity (MDA-MB-231 [5]): 8% |
| Cc1[nH]c2ccccc2c1C1=C(Cl)C(=O)C(N2CCOCC2)=C(Cl)C1=O | 200 | 250 | 170 | Activity (MDA-MB-231 [2]): 10.44%; Activity (MDA-MB-231 [3]): 81.89%; Activity (MDA-MB-231 [4]): 31.74%; Activity (MDA-MB-231 [5]): 7.67% |
| C#CCNC1=C(Cl)C(=O)C(c2c(C)[nH]c3ccccc23)=C(Cl)C1=O | 170 | 920 | 670 |  |
| COc1ccc(CCNC2=C(Cl)C(=O)C(c3c(C)[nH]c4ccccc34)=C(Cl)C2=O)cc1OC | 290 | 6300 | 720 |  |
| Cc1[nH]c2ccccc2c1C1=C(Cl)C(=O)C(NCCc2cc3ccccc3[nH]2)=C(Cl)C1=O | 830 | 3110 | 440 |  |
| Cc1[nH]c2ccccc2c1C1=C(Cl)C(=O)C(Cl)=C(NCCOc2ccccc2)C1=O | 710 | > 10000 | > 10000 |  |
| COC(=O)/C=C/C(=O)OCCN1CCN(C2=C(Cl)C(=O)C(c3c(C)[nH]c4ccccc34)=C(Cl)C2=O)CC1 | 140 | 330 | 320 |  |
| COC(=O)/C=C/C(=O)OCCNC1=C(Cl)C(=O)C(Cl)=C(c2c(C)[nH]c3ccccc23)C1=O | 140 | 110 | 340 |  |
| O=C1c2c(O)ccc(O)c2C(=O)c2c(NCCNCCO)ccc(NCCNCCO)c21 [MITOXANTRONE] |  |  |  | T/C (4T1 [6]): 32%; Activity [7]: Non-Toxic; Activity (Mus musculus): Active; inhibition in vivo at 50 mg/kg (4T1 [8]): 59.8%; Activity [9]: Non-Toxic; Activity [10]: Non-Toxic; Activity (4T1 [11]): 77.86%; Activity (4T1 [12]): 93.24%; Activity [13]: Non-Toxic; Activity (4T1 [14]): Active; Activity [15]: Non-Toxic |
| Cc1[nH]c2ccccc2c1C1=C(Cl)C(=O)C(Cl)=C(N2CCN(C=O)CC2)C1=O | 120 | 350 | 170 |  |
